How the values were obtained:
[1] = molecular target: His-tagged human recombinant kinase full-length Akt1 (Homo sapiens (Human), UniProt P31749); test: Akt1 kinase assay (TR-FRET); assay type: biochemical; conditions: 10 μM ATP; median
In short: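 Full-length His-tagged human Akt1 from insect cells, pre-incubated 15 min with compound, then 60 min at 22° C with 10 μM ATP and 1 μM biotinylated peptide in pH 7.5 TRIS buffer. Phosphopeptide detected by HTRF (665/620 nm ratio); data normalised to no-inhibitor and no-enzyme controls.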

[2] = molecular target: His-tagged human recombinant kinase full-length Akt2 (Homo sapiens (Human), UniProt P31751); test: Akt2 kinase assay (TR-FRET); assay type: biochemical; conditions: 10 μM ATP; median
In short: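 PDK1-activated full-length His-Akt2 (insect-cell expressed, ~0.2 ng/μl final) pre-incubated with compound 15 min, then reacted 60 min at 22 °C with 10 μM ATP and 1 μM biotinylated peptide in Tris pH 7.5/MgCl2/DTT. EDTA stop; phospho-peptide read by HTRF 665/620 ratio, normalised to no-inhibitor and no-enzyme controls.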

[3] = test system: phospho-AKT at S473 in KPL4 breast tumour cell line; test: Cellular p-AKT1/2/3-S473 assay; assay type: cell-based; conditions: KPL4 cells, 2 hours treatment; median; read-out: pAKT-S743 median IC50
KPL-4 cells = test: Tumor cell proliferation assay (CellTiter-Glo); assay type: cell-based; conditions: KPL4; 72 h drug exposure

Sequence of His-tagged human recombinant kinase full-length Akt1 (P31749 whole entry): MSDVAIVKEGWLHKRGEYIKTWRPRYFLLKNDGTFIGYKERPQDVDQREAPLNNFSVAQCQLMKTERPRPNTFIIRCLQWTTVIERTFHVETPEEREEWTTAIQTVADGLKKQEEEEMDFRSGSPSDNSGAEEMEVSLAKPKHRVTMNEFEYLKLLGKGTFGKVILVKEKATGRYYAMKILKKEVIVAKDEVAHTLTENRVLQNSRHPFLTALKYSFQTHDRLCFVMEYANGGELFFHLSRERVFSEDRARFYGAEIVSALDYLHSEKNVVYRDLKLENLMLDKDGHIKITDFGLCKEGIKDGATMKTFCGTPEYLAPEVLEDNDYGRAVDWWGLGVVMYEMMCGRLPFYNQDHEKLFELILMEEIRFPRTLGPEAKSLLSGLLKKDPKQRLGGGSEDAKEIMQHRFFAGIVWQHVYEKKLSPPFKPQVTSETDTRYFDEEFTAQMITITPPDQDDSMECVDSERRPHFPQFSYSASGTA
Sequence of His-tagged human recombinant kinase full-length Akt2 (P31751 whole entry): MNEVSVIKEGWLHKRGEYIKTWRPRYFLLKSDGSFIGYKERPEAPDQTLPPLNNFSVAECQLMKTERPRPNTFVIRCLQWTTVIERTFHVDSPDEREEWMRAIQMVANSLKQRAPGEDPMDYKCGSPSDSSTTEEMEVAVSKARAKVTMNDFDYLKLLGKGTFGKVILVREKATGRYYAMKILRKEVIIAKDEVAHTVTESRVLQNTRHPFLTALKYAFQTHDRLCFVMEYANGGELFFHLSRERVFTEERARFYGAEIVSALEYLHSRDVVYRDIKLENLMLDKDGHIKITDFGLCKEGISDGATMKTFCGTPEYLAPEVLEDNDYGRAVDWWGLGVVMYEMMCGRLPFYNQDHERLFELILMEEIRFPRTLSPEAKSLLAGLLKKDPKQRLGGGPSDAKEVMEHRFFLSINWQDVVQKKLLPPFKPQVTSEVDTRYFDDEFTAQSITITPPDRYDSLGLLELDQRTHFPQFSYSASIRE

IC50 [1] [µM] | IC50 [2] [µM] | IC50 [3] [µM] | IC50 (KPL-4 cells) [µM] | Compound
15 | 16.8 | 10 | 3.85 | Cc1nc2cc(-c3ccccc3)c(-c3ccc(C4(N)CCC4)cc3)nn2c1-c1cccc(C(N)=O)c1 [Example 5-0, 3-{6-[4-(1-Amino-cyclobutyl)-phenyl]-2-methyl-7-phenyl-imidazo[1,2-b]pyridazin-3-yl}-benzamide]
5.97 | 10.1 | 10 | 5.28 | COC(=O)/C=C/c1c(C)nc2cc(-c3ccccc3)c(-c3ccc(C4(N)CCC4)cc3)nn12 [Example 11-0, (E)-3-{6-[4-(1-Amino-cyclobutyl)-phenyl]-2-methyl-7-phenyl-imidazo[1,2-b]pyridazin-3-yl}-acrylic acid methyl ester]
